PubChem BioAssay (NCI)
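Method: 48-hour compound exposure of cells in 96-well plates, five concentrations, linear interpolation of endpoints. At the GI50, growth is halved. TGI: total growth inhibition.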

Columns and labels:
Test in all cases: inhibition of tumour cell growth, NCI panel, 48 h
ACHN renal = system: ACHN renal
786-0 renal = system: 786-0 renal
UO-31 renal = system: UO-31 renal
MCF7 breast = system: MCF7 breast
T-47D breast = system: T-47D breast
NCI-H226 lung = system: NCI-H226 lung
SK-MEL-5 melanoma = system: SK-MEL-5 melanoma
A498 renal = system: A498 renal

Row | Compound | GI50 (ACHN renal) [nM] | TGI (ACHN renal) [nM] | GI50 (786-0 renal) [nM] | TGI (786-0 renal) [nM] | GI50 (UO-31 renal) [nM] | TGI (UO-31 renal) [nM] | GI50 (MCF7 breast) [nM] | TGI (MCF7 breast) [nM] | GI50 (T-47D breast) [nM] | TGI (T-47D breast) [nM] | GI50 (NCI-H226 lung) [nM] | TGI (NCI-H226 lung) [nM] | GI50 (SK-MEL-5 melanoma) [nM] | TGI (SK-MEL-5 melanoma) [nM] | GI50 (A498 renal) [nM] | TGI (A498 renal) [nM]
1 | N#C/C(=N\Nc1ccccc1)C(=O)Nc1cc(-c2ccccc2)nn1-c1ccccc1 | 2980 | > 100000 | 3040 | 16300 | 2580 | > 100000 | 2460 | > 100000 | 2030 | 8110 | 2800 | > 100000 | 1540 | 4860 |  | 
2 | CCCCCC[C@@H](C)NC(=O)c1ccc(Nc2nc3ccccc3c3occc23)cc1 | 24800 | 91700 | 2900 | 26300 | 2870 | 21000 | 7580 | > 100000 |  |  |  |  | 1660 | 4010 | 2400 | 7540
3 | CC(=O)/C=C/C1=C(c2csc3ccccc23)c2ccccc2CC1 | 25400 | 88300 | 35700 | > 100000 | 11600 | 41200 | 21800 | 87800 | 22600 | > 100000 | 19800 | 44100 | 13400 | 28800 | 22400 | 50200
4 | Cc1[nH]c(N)nc(=S)c1CCC(=O)O |  | > 100000 |  | > 100000 |  | > 100000 |  | > 100000 |  |  |  | > 100000 |  | > 100000 |  | > 100000
5 | Cc1ccc2c(c1)C(=O)c1c-2c(OCCCN(C)C)nc2ccccc12 | 731 | 2110 | 2980 | 18100 | 1130 | 8260 | 609 | 2030 | 7950 | 26000 | 2490 | 13700 | 4140 | 16300 | 4020 | 14300
6 | O=C(CI)Nc1ccc(O)c2ccccc12 | 1490 | 2840 | 1730 | 3270 | 647 | 2010 | 766 | 2350 | 1700 | 4270 | 1670 | 5610 | 1630 | 3080 | 2370 | 9120
7 | Nc1nc2cc(CC[C@H]3C[C@@H](n4ccc5c(N)ncnc54)[C@H](O)[C@@H]3O)ccc2cc1Br | 12300 | 28500 | 12700 | 28900 | 2920 | 18000 | 1820 | 19100 | 785 | 27200 | 2710 | 26800 | 579 | 2980 | 2380 | 18900
8 | COC1=CC(c2ccc[nH]2)=N/C1=C\c1[nH]c(C)c(CC(=O)OCc2ccccc2)c1C | 296 | 886 | 299 | 1190 | 193 | 398 | 397 | 2850 | 251 | 1080 | 330 | 2310 |  |  | 433 | 2300
9 | CC([C@H]1CC=C2C3CCC4=C[C@@H](N(C)C)CC[C@]4(C)C3CC[C@@]21C)N(C)C (stereo not given in full) | 4070 | 14700 | 2940 | 7990 | 1950 | 5540 | 1980 | 9400 | 1170 | 7770 | 4520 | 21500 | 1350 | 2710 | 3270 | 13900
10 | CC(=O)O[C@H]1C(=O)[C@@]2(C)[C@H]([C@H](OC(=O)c3ccccc3)[C@]3(O)C[C@H](OC(=O)[C@H](OC(=O)OC[C@H]4COC(C)(C)O4)[C@@H](NC(=O)c4ccccc4)c4ccccc4)C(C)=C1C3(C)C)[C@]1(OC(C)=O)CO[C@@H]1C[C@@H]2O | 343 | > 33300 | 122 | > 33300 | 738 | > 33300 | 5.06 | > 33300 | 43.7 | > 33300 | 290 | > 33300 | 83.2 | > 33300 | 54.5 | 499
11 | NC(=O)c1cccc(OCC(O)CO)c1 (stereo not given) |  | > 100000 |  | > 100000 |  | > 100000 |  | > 100000 |  | > 100000 |  | > 100000 |  | > 100000 |  | > 100000
12 | COc1cc(C(=O)O[C@H](C(=O)NCCN(C)CCNC(=O)[C@@H](OC(=O)c2cc(OC)cc3c(C)cccc23)[C@]2(C)CO2)[C@]2(C)CO2)c2cccc(C)c2c1 |  |  |  | 179 | 417 | > 100000 | < 10 | 327 | 92.4 | 1700 | 182 | 721 | 17.3 | 178 | 888 | 2820
13 | ClCc1ccccc1Cn1cnc2c(Cl)ncnc21 | 2700 | 6100 | 17700 | 38400 | 2650 | 10400 | 11100 | > 100000 | 17900 | 62000 | 4590 | 12500 | 1400 | 2880 | 17400 | 32200
14 | O=C(C#Cc1ccccc1)C1=Cc2ccccc2OC1 |  | 5260 |  | 6170 |  | 5340 |  | 3870 |  | > 61100 |  | 8360 |  | 4890 |  | 39200
15 | COc1ccc(NC(=O)c2sc3nc(C)c(C(=O)/C=C/c4cccc(OC)c4)cc3c2N)cc1 | 1080 | 2490 | 856 | 1850 | 842 | 1760 | 339 | > 50000 | 1460 | > 50000 | 1890 | 10300 | 3550 | 10700 | 1080 | 3220
16 | C[C@H]1COCCN1c1cc(C2(S(=O)(=O)C3CC3)CC2)nc(-c2ccc(NC(=S)NCCO)cc2)n1 | 70.5 | > 100000 | 38.2 | 3490 | 27.2 | 524 | < 10 | 18000 | < 10 | 22.4 | 23.7 | 1340 | 15.1 | 147 | < 10 | < 13.5
